According to publication PMC3931646, “A Cyclic Nucleotide-Gated Channel Mutation Associated with Canine Daylight Blindness Provides Insight into a Role for the S2 Segment Tri-Asp motif in Channel Biogenesis” (PLoS ONE, 2014):

Key:
cA3+ hB3 = biological target: T1, cA3+ hB3 (Canis lupus familiaris; Homo sapiens, UniProt A0A068LEV2+Q9NQW8); assay: inside-out patch electrophysiology, current block; assay type: biochemical; settings: 25 µM; channel block; 25 µM L-cis-diltiazem with 100 µM cGMP, -60 mV, 120 mM NaCl, EDTA/EGTA, pH 7.4, room temperature
T1 construct: gene CNGA3; inter-species heterotetramer: canine CNGA3 with C-terminal YFP co-expressed with untagged human CNGB3 (pcDNA3.1) in tSA201 cells; stoichiometry debated (2:2 or 3:1)
T1 sequence (A0A068LEV2 1-708): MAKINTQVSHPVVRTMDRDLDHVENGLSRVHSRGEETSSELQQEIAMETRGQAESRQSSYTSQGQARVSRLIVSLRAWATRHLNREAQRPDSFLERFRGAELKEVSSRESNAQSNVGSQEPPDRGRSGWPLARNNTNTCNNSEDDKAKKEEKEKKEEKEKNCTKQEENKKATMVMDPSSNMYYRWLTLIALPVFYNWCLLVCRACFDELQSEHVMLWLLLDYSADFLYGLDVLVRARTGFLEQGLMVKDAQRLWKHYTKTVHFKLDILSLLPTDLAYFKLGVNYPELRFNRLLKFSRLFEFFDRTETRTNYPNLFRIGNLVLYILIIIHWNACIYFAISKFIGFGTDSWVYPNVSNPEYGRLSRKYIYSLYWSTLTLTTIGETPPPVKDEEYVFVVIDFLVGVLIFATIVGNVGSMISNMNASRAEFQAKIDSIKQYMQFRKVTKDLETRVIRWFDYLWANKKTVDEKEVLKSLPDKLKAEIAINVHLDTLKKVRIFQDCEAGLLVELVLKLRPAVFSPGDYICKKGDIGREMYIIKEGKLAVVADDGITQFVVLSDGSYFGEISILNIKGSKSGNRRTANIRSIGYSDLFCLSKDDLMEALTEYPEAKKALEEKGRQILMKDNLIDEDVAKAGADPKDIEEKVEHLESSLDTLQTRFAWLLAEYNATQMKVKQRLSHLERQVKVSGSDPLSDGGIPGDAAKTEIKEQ
T1 sequence (Q9NQW8 1-809): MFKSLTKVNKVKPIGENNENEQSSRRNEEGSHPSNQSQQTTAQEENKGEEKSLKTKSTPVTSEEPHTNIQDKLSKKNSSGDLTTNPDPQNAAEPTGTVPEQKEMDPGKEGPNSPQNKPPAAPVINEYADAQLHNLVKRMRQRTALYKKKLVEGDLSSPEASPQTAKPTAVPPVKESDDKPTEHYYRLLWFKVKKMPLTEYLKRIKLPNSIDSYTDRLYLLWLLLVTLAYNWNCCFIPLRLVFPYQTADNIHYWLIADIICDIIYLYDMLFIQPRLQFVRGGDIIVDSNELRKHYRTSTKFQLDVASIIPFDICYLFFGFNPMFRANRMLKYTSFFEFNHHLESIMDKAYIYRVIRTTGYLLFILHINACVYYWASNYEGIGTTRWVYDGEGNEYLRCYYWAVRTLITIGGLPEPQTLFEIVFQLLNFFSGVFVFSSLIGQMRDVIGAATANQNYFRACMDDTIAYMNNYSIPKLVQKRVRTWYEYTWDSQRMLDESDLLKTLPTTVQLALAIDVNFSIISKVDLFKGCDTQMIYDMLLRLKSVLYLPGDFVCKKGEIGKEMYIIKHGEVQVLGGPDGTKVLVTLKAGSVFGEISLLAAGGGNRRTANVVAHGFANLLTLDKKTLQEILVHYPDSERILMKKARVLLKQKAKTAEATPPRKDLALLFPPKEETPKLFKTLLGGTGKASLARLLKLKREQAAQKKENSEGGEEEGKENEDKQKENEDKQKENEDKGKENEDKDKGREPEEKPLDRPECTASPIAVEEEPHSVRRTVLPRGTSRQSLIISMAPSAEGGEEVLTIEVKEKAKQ
From the text: inside-out patch electrophysiology, current block on cA3+ hB3

cA3 = biological target: T2, cA3 (Canis lupus, UniProt A0A068LEV2); assay: inside-out patch electrophysiology, current block; assay type: biochemical; settings: 25 µM; channel block; 25 µM L-cis-diltiazem with 100 µM cGMP, -60 mV, 120 mM NaCl, EDTA/EGTA, pH 7.4, room temperature
T2 construct: gene CNGA3; full-length coding region cloned from canine retina, C-terminal YFP (pEYFP-N1, stop removed), tSA201 cells, homotetramer
T2 sequence (A0A068LEV2 1-708): T1 sequence (A0A068LEV2 1-708)
From the text: inside-out patch electrophysiology, current block on cA3

Idil/I (cA3+ hB3): 0.40±0.02
Idil/I (cA3): 0.79±0.05
Compound: COc1ccc([C@H]2Sc3ccccc3N(CCN(C)C)C(=O)[C@H]2OC(C)=O)cc1 [L-cis-diltiazem]
